The values below come from US20240308992A1 (Biopolar Youtang(Guangdong) Pharmaceutical Co., Ltd., priority 2021, published 2024).

Where only a bound is given, the exact number is not on record here.

The test deals with T1, Drak2 (Homo sapiens, UniProt O94768).
T1 sequence (O94768 1-372): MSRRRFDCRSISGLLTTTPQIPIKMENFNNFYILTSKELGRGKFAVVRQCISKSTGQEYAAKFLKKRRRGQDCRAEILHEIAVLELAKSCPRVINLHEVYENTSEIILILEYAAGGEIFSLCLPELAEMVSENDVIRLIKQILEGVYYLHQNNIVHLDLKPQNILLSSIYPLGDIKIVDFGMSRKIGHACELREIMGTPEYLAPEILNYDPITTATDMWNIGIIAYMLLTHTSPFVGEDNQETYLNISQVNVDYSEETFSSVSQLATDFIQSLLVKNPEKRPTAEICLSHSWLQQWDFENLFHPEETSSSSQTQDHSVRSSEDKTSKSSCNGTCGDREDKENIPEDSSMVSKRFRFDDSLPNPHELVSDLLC
The experiment in a line: Drak2 activity test, ADP-Glo kinase assay (Promega). Format: biochemical. To be noted: inhibition of Drak2 kinase activity, 2 h room temperature, activity range classes, read-out: IC50_Drak2.

Turning to `COc1cc(-c2cncc(-c3cc(NC(C)=O)cs3)n2)ccc1C(=O)Nc1nnn[nH]1` [Example B10, 2-methoxy-4-(6-(4-acetamidothiophen-2-yl)pyrazin-2-yl)-N-(1H-tetrazol-5-yl)benzamide], the IC50 was 101 to 1000 nM.

With `COc1cc(-c2cncc(-c3cc(NC(=O)CC4CC(F)(F)C4)cs3)n2)ccc1C(=O)N(C)C1CC2(C1)CN(C)C2` (stereo not shown) [Example 202, 4-[6-(4-{[2-(3,3-difluorocyclobutyl)acetyl]amino}thiophen-2-yl)pyrazin-2-yl]-2-methoxy-N-methyl-N-(2-methyl-2-azaspiro [3.3]hept-6-yl) benzamide], the IC50 lay in the range of 11 to 100 nM. In the case of `COc1cc(-c2cncc(-c3cc(NC(=O)CC4CC4)cs3)n2)ccc1C(=O)N1CCN(C2CCN(C)CC2)CC1` [Example B50, 2-cyclopropyl-N-(5-(6-(3-methoxy-4-(4-(1-methylpiperidin-4-yl)piperazine-1-carbonyl)phenyl)pyrazin-2-yl)thiophen-3-yl)acetamide], the IC50 lay in the range of 11 to 100 nM. Regarding `CCCCC(=O)Nc1csc(-c2cncc(-c3ccc(C(=O)OC)c(OC)c3)n2)c1` [Example B1, Methyl 2-methoxy-4-(6-(4-pentanamidothiophen-2-yl)pyrazin-2-yl)benzoate], the IC50 fell in the range of 101 to 1000 nM. Turning to `O=C(Nc1csc(-c2cncc(-c3ccc4c(c3)OCO4)n2)c1)C1CCC1` [Example A24, N-(5-(6-(benzo[d][1,3]dioxol-5-yl)pyrazin-2-yl)thiophen-3-yl)cyclobutanecarboxamide], the IC50 lay in the range of 1000 to 10000 nM.

Consider `COc1cc(-c2cncc(-c3cc(NC(=O)CC4CC4)cs3)n2)ccc1C(=O)N1CCN(C)CC1` [Example B38, 2-cyclopropyl-N-(5-(6-(3-methoxy-4-(4-methylpiperazine-1-carbonyl)phenyl)pyrazin-2-yl)thiophen-3-yl)acetamide], for which the IC50 was 11 to 100 nM. Consider `CCCCC(=O)Nc1csc(-c2cncc(N3CCN(S(C)(=O)=O)CC3)n2)c1` [Example D6, N-(5-(6-(4-(methylsulfonyl)piperazin-1-yl)pyrazin-2-yl)thiophen-3-yl)pentanamide], for which the IC50 was 101 to 1000 nM.

Consider `CCCCC(=O)Nc1csc(-c2cncc(-c3ccc(OC)c(OC)c3)c2C(N)=O)c1` [Example C3, 3-(3,4-dimethoxyphenyl)-5-(4-pentanamidothiophen-2-yl)isonicotinamide], for which the IC50 was in the range of 1000 to 10000 nM. With `COc1cc(-c2cncc(-c3cc(NC(=O)CC4CC(O)C4)cs3)n2)ccc1C(=O)N(C)C1CC2(C1)CN(C)C2` (stereo not shown) [Example 205, 4-(6-(4-(2-(3-hydroxycyclobutyl)acetylamino)thiophen-2-yl)pyrazin-2-yl)-2-methoxy-N-methyl-N-(2-methyl-2-azaspiro [3.3]heptane-6-yl) benzamide], the IC50 lay in the range of 11 to 100 nM. As for `COc1cc(-c2cncc(-c3cc(NC(=O)CC4CCC4)cs3)n2)ccc1S(=O)(=O)N(C)CCN(C)C` [Example B101, 2-cyclobutyl-N-(5-(6-(4-(N-(2-(dimethylamino)ethyl)-N-methylsulfamoyl)-3-methoxyphenyl)pyrazin-2-yl)thiophen-3-yl)acetamide], the IC50 was 11 to 100 nM. On to `CCS(=O)(=O)c1ccc(-c2cncc(-c3cc(NC(=O)CC4CCC4)cs3)n2)cc1OC` [Example A46, 2-cyclobutyl-N-(5-(6-(4-(ethylsulfonyl)-3-methoxyphenyl)pyrazin-2-yl)thiophen-3-yl)acetamide], for which the IC50 lay within 101 to 1000 nM. The same measure for `CCCCCCCCCCC(=O)Nc1csc(-c2cncc(-c3ccc(C(=O)Nc4nnn[nH]4)c(OC)c3)n2)c1` [Example B21, 2-methoxy-4-(6-(4-undecanamidothiophen-2-yl)pyrazin-2-yl)-N-(1H-tetrazol-5-yl)benzamide]: above 10000 nM; for `COc1cc(-c2cncc(-c3cc(NC(=O)CC4CCC4)cs3)n2)ccc1C(=O)NO` [Example B98, 4-(6-(4-(2-cyclobutylacetamido)thiophen-2-yl)pyrazin-2-yl)-N-hydroxy-2-methoxybenzamide]: below 10 nM.
